Assay results from patent US20060058317A1, “Oxazolidinone derivatives as antibacterial” (AstraZeneca AB, priority 2002, published 2006).
≈ marks a conversion by molar mass, not a printed value.

How the values were obtained:
Type in all cases: cell-based
[1] = tested on: Staphylococcus aureus MSQS (methicillin sensitive and quinolone sensitive); experiment: MIC by agar dilution, Staphylococcus aureus MSQS; settings: S. aureus MSQS, 10^4 CFU/spot, 37° C., 24 hours
Method: (§1) The following results were obtained on a standard in-vitro test system. The activity is described in terms of the minimum inhibitory concentration (MIC) determined by the agar-dilution technique with an inoculum size of 10^4 CFU/spot. Typically, compounds are active in the range 0.01 to 256 μg/ml.
(§2) Staphylococci were tested on agar, using an inoculum of 10^4 CFU/spot and an incubation temperature of 37° C., for 24 hours—standard test conditions for the expression of methicillin resistance.

Streptococcus pneumoniae = experiment: MIC by agar dilution, Streptococcus pneumoniae; settings: agar with 5% defibrinated horse blood, 10^4 CFU/spot, 37° C., 5% carbon dioxide, 48 hours
Method: as §1
(§3) Streptococci and enterococci were tested on agar supplemented with 5% defibrinated horse blood, an inoculum of 10^4 CFU/spot and an incubation temperature of 37° C., in an atmosphere of 5% carbon dioxide for 48 hours—blood is required for the growth of some of the test organisms. Fastidious Gram negative organisms were tested in Mueller-Hinton broth, supplemented with hemin and NAD, grown aerobically for 24 hours at 37° C., and with an innoculum of 5×10^4 CFU/well.

Haemophilus influenzae = experiment: MIC in Mueller-Hinton broth, Haemophilus influenzae; settings: Mueller-Hinton broth with hemin and NAD, aerobic, 24 hours, 37° C., 5×10^4 CFU/well
Method: as §1, §3

[2] = tested on: Linezolid Resistant Streptococcus pneumoniae; experiment: MIC by agar dilution, Linezolid Resistant Streptococcus pneumoniae; settings: agar with 5% defibrinated horse blood, 10^4 CFU/spot, 37° C., 5% carbon dioxide, 48 hours
Method: as §1, §3

[3] = tested on: Staphylococcus aureus MRQR (methicillin resistant and quinolone resistant); experiment: MIC by agar dilution, Staphylococcus aureus MRQR; settings: S. aureus MRQR, 10^4 CFU/spot, 37° C., 24 hours
Method: as §1, §2

Moraxella catarrhalis = experiment: MIC in Mueller-Hinton broth, Moraxella catarrhalis; settings: Mueller-Hinton broth with hemin and NAD, aerobic, 24 hours, 37° C., 5×10^4 CFU/well
Method: as §1, §3

Enterococcus faecium = experiment: MIC by agar dilution, Enterococcus faecium; settings: agar with 5% defibrinated horse blood, 10^4 CFU/spot, 37° C., 5% carbon dioxide, 48 hours
Method: as §1, §3

MIC [1]: 4 µg/mL (≈ 9.15 µM) | MIC (Streptococcus pneumoniae): 1 µg/mL (≈ 2.29 µM) | MIC (Haemophilus influenzae): 64 µg/mL (≈ 146 µM) | MIC [2]: 64 µg/mL (≈ 146 µM) | MIC [3]: 4 µg/mL (≈ 9.15 µM) | MIC (Moraxella catarrhalis): 4 µg/mL (≈ 9.15 µM) | MIC (Enterococcus faecium): 4 µg/mL (≈ 9.15 µM)
SMILES: Cn1nnc(-c2ccc(-c3ccc(N4C[C@H](COc5ccon5)OC4=O)cc3F)cn2)n1 [Example 1]
